Measurements as given in US20250359549A1, “PESTICIDE BACTERICIDAL COMPOSITION, WATER DISPERSIBLE GRANULE AND PREPARATION METHOD AND USE THEREOF” (QINGDAO RAINBOW CHEMICAL CO., LTD., priority 2023, published 2025).
Like-named read-outs stand apart in the source and are kept apart here.

Key:
plasmopara viticola = test: Indoor toxicity measurement, leaf disk method; assay type: in vivo; settings: grape downy mildew; for EC50: Plasmopara viticola, foliar, read-out: Measured EC50 value (X2)
Method: After the pesticide solution was naturally dried in air, each treated leaf disc with an upward back was placed in a culture dish, and absorbent paper moistened with the same pesticide solution was placed at the bottom of the culture dish. 15 leaf discs were placed in a concentric circle for each dish, with 4 repetitions for 1 dish treated. Blank control was treated with a 0.1% Tween-80 aqueous solution. Inoculation was performed after 24 h of pesticide treatment. […] The spore sac suspension was cultured with an artificial climate chamber. […] The severity of the disease was determined according to the percentage of the diseased area on the leaf disc to the leaf disc area, the number of diseased leaf discs and the severity of the disease were recorded, and the disease index and prevention and control effect were calculated according to the formula. […] The toxicity regression curve equation y=a+bx and the correlation coefficient r were obtained, and the EC50 of each single agent and different proportions of mixtures was calculated based on the regression equation. Based on the EC50 values of each single agent and compounded agent, the synergistic coefficients (SR) of each compounded agent were calculated according to Wadley method, and the compounding effect was evaluated by using SR value. […] In equations (1) and (2), SR is the synergistic coefficient of the mixture; X1 is the theoretical EC50 value of the mixture, unit: milligrams per liter (mg/L); X2 is the measured EC50 value of the mixture, unit: milligrams per liter (mg/L). […] X1′ is the theoretical value of the mixture, unit: milligrams per liter (mg/L); X2 is the measured value of the mixture, unit: milligrams per liter (mg/L). […] Similarly, the synergistic coefficients SRs of chlorothalonil and picoxystrobin (A+C)+tebuconazole (B) (referred to as (A+C)+B), tebuconazole and picoxystrobin (B+C)+chlorothalonil (A) (referred to as (B+C)+A) can be calculated.

[1] = 20° C., cited from earlier work
[2] = 25° C.; cited from earlier work
[3] = cited from earlier work

Row | SMILES | EC50 (plasmopara viticola) | solubility in an organic solvent ([1]; dichloromethane) | solubility in an organic solvent ([1]; hexane) | distribution coefficient log P [2] | Hydrolysis ([3]; pH>9) | Stability ([3]; storage at room temperature, weak alkaline and acidic aqueous solutions, UV radiation) | Measured EC50 value (X2) (plasmopara viticola)
1 | CC(C)(C)C(O)(CCc1ccc(Cl)cc1)Cn1cncn1 (racemic) [Tebuconazole] | 3.29 mg/L | > 200 mg/mL | < 0.1 mg/mL | – | – | – | –
2 | N#Cc1c(Cl)c(Cl)c(Cl)c(C#N)c1Cl [Chlorothalonil] | 24.6 mg/L | – | – | 2.92 | slowly hydrolyzed | stably stored at room temperature, and stable to weak alkaline and acidic aqueous solutions and UV radiation | –
3 | CO/C=C(/C(=O)OC)c1ccccc1COc1cccc(C(F)(F)F)n1 [Picoxystrobin] | – | – | – | – | – | – | 2.48 mg/L
